Measurements as given in patent US20240292843A1, “BIOFILM REMOVAL” (PARTNERS FOR ENDOSCOPY LIMITED, priority 2021, published 2024).

Test system: biofilm containing Pseudomonas aeruginosa
Assay: Biofilm treatment of endoscope biopsy channel pieces, CFU by serial dilution and plate counting (FIG. 1)
Type: cell-based
Settings: mature biofilm on biopsy channel tubes; treatment applied for 5 minutes; 1.5 wt. % hydrogen peroxide or 1 mg/ml zeolite Y, aqueous; versus phosphate-buffer saline control; triplicate
Procedure: The biopsy channel of the endoscope harbors a biofilm containing Pseudomonas aeruginosa. As a first step, to form the sample biopsy tubes harboring the biofilm, the biopsy channel was first cut into small pieces, which are then submerged into Müller-Hilton broth. A single colony of Pseudomonas aeruginosa was added to the broth. At a second step, the pieces were kept in the broth at 37° C. for 24 hours to allow the bacteria to grow. Also in the second step, the tube pieces were then washed 5 times with a copious amount of water to remove dangling bacteria, and to leave only fixed biofilm remaining on the surface of the tubes. The second step is then repeated three times to provide a mature biofilm. To provide the data of FIG. 1, different treatment mixtures were applied for 5 minutes to the tubes with mature biofilm. The tubes with mature biofilm were prepared using the method above. After the treatment mixture is applied, the tubes are washed. The tubes are then placed in a centrifuge tube floating in an ultrasonic bath to release bacteria in the biofilm into solution. The number of colony forming units (CFU) is calculated via serial dilution and plate counting method. Each experiment is performed in triplicate.

In the case of `OO` [hydrogen peroxide], the “number of colony forming units of the Pseudomonas aeruginosa bacteria” value is reported as “causes a reduction”.
